Results: US20180303853A1, “COMPOSITIONS AND METHODS FOR TREATING BACTERIAL INFECTIONS USING CEFTAROLINE” (priority 2017, published 2018)
Like-named read-outs stand apart in the source and are kept apart here.

Assays:
[1] = system: Community-Acquired Bacterial Pneumonia (CABP); test: Two Phase 3 studies in CABP, clinical cure at TOC (single and integrated/combined); format: in vivo, human; conditions: for Combined clinical cure rate: combined data of the two CAP studies, TOC
Experimental: (§1) In both treatment groups of CABP Study 1, two doses of oral clarithromycin (500 mg q12 h), were administered as adjunctive therapy starting on Study Day 1. No adjunctive macrolide therapy was used in CABP Study 2. Patients with new or progressive pulmonary infiltrate(s) on chest radiography and clinical signs and symptoms consistent with CABP with the need for hospitalization and IV therapy were enrolled in the studies. Treatment duration was 5 to 7 days. A switch to oral therapy was not allowed. The Modified Intent-to-Treat Efficacy (MITTE) population, included all patients who received any amount of study drug according to their randomized, treatment group and were in PORT (Pneumonia Outcomes Research Team) Risk Class III or IV.
(§2) The primary efficacy endpoint was the clinical response at the Test of Cure (TOC) visit in the co-primary Ce and MITTE populations (Table 4).

[2] = system: Escherichia coli; test: Integrated Phase 3 CABP studies, clinical cure by infecting pathogen; format: in vivo; conditions: ME patients
Experimental: as §1, §2

[3] = system: Haemophilus influenzae; test: as above; format: in vivo; conditions: ME patients
Experimental: as §1, §2

[4] = system: Klebsiella pneumoniae; test: as above; format: in vivo; conditions: ME patients
Experimental: as §1, §2

[5] = system: Staphylococcus aureus; test: as above; format: in vivo; conditions: ME patients
Experimental: as §1, §2

[6] = system: Streptococcus pneumoniae; test: as above; format: in vivo; conditions: ME patients
Experimental: as §1, §2

[7] = system: MDRSP (multidrug-resistant); format: in vivo, Streptococcus pneumoniae; conditions: CABP, ME patients
Experimental: as §1, §2

[8] = system: MSSA (methicillin-susceptible); test: Integrated Phase 3 CABP studies, clinical cure by infecting pathogen; format: in vivo, Staphylococcus aureus; conditions: ME patients
Experimental: as §1, §2

[9] = system: community-acquired pneumonia (CAP); test: Example 4 Phase 3 study, ceftaroline vs ceftriaxone in CAP, efficacy; format: in vivo, human
From the text: (§3) The secondary objectives of the study were to evaluate the following: clinical response at end-of-therapy (EOT); the microbiological favorable outcome rate at TOC; the overall (clinical and radiographic) success rate at TOC; the clinical and microbiological response by pathogen at TOC; clinical relapse at late follow-up (LFU); microbiological reinfection/recurrence at LFU; and safety.
(§4) The following criteria were used for evaluation: The primary efficacy outcome measures were the pet-subject clinical cure rate at test-of-cure (TOC) in the CE and MITTE Populations Subjects were considered clinically cured at TOC if they had total resolution of all signs and symptoms of the baseline infection, or improvement of the infection such that no further antimicrobial therapy was necessary.
(§5) Non-inferiority was concluded if the lower limit of the 95% CI was higher than −10%.

[10] = system: MDRSP; test: Example 4 CAP study, outcome by baseline pathogen; format: in vivo, S. pneumoniae
From the text: (§6) Per-pathogen clinical cure rate and favorable microbiological outcome rate at TOC in the mMITTE and ME Populations;

[11] = system: H. influenzae; test: Example 4 CAP study, outcome by baseline pathogen; format: in vivo
From the text: as §6

[12] = system: H. parainfluenzae; test: Example 4 CAP study, outcome by baseline pathogen; format: in vivo
From the text: as §6

[13] = system: K. pneumoniae; test: Example 4 CAP study, outcome by baseline pathogen; format: in vivo
From the text: as §6

[14] = system: S. aureus; test: Example 4 CAP study, outcome by baseline pathogen; format: in vivo
From the text: as §6

[15] = system: S. pneumoniae; test: Example 4 CAP study, outcome by baseline pathogen; format: in vivo
From the text: as §6

[16] = system: community-acquired pneumonia (CAP); test: Example 5 Phase 3 study, ceftaroline vs ceftriaxone with adjunctive clarithromycin in CAP, efficacy; format: in vivo, human
From the text: as §3, with “objective” for “objectives”, “was” for “were”, “following: the” for “following:”
as §4, with “The” for “The following criteria were used for evaluation: The”, “per-subject” for “pet-subject”, “TOC” for “test-of-cure (TOC)”, “Populations.” for “Populations”
as §5

[17] = system: MDRSP; test: Example 5 CAP study, outcome by baseline pathogen; format: in vivo, S. pneumoniae
From the text: as §6

[18] = system: E. coli; test: Example 5 CAP study, outcome by baseline pathogen; format: in vivo
From the text: as §6

[19] = system: H. influenzae; test: Example 5 CAP study, outcome by baseline pathogen; format: in vivo
From the text: as §6

[20] = system: H. parainfluenzae; test: Example 5 CAP study, outcome by baseline pathogen; format: in vivo
From the text: as §6

[21] = system: S. aureus; test: Example 5 CAP study, outcome by baseline pathogen; format: in vivo
From the text: as §6

[22] = system: S. pneumoniae; test: Example 5 CAP study, outcome by baseline pathogen; format: in vivo
From the text: as §6

[23] = human, in vivo
Experimental: (§7) Study-Drug: Ceftaroline fosamil was administered in two consecutive 300 mg intravenous (IV) infusions over 30 minutes, every 12 hours (q12h). The 600-mg dose of ceftaroline fosamil infused over 60 minutes was split into two infusions in order to maintain the blind. For subjects with moderate renal impairment (30 ml/min<CrCl≤50 ml/min), as estimated by the Cockroft-Gault formula, unblinded pharmacy staff or unblinded study staff could adjust the dose of ceftaroline fosamil to two consecutive 200 mg infusions and readjust dose to two 300 mg infusions when renal function improved (CrCl>50 mL/min). The duration of treatment was between 5 to 7 days.
(§8) All subjects who received any amount of study drug were included in the safety analysis. Safety measures included monitoring for adverse events (AE) up to TOC and serious adverse events (SAE) through LFU; recording vital signs, physical examination, electrocardiogram (ECG), and clinical laboratory findings (clinical chemistry, hematology, and urinalysis), at prespecified times throughout the study.

[24] = human, in vivo; remark: listed apart in the source
Experimental: (§9) Study drug: Ceftaroline fosamil was administered in two consecutive 300 mg intravenous (IV) infusions over 30 minutes, every 12 hours (q12h). The 600-mg dose of ceftaroline fosamil infused over 60 minutes was split into two infusions in order to maintain the blind. For subjects with moderate renal impairment (30 mL/min<CrCl≤50 mL/min), as estimated by the Cockroft-Gault formula, unblinded pharmacy staff or unblinded study staff could adjust the dose of ceftaroline fosamil to two consecutive 200 mg infusions and readjust dose to two 300 mg infusions when renal function improved (CrCl>50 mL/min). The duration of treatment was between 5 to 7 days.
(§10) All subjects initially received two doses (500 mg every 12 hours) of oral adjunctive therapy with clarithromycin following randomization.
(§11) All subjects who received any amount of study drug were included in the safety analysis. Safety measures included monitoring for adverse events (AE) up to TOC and serious adverse events (SAE) through LFU; recording vital signs, physical examination, electrocardiogram (ECG), and clinical laboratory findings (clinical chemistry, hematology, and urinalysis); at prespecified times throughout the study.

[25] = Example 4 CAP study, safety
Experimental: as §7, §8

[26] = Example 5 CAP study, safety
Experimental: as §9, §10, §11

CO/N=C(\C(=O)N[C@@H]1C(=O)N2C(C(=O)O)=C(CSc3nc(=O)c(=O)[nH]n3C)CS[C@H]12)c1csc(N)n1 [Ceftriaxone, ceftriaxone, reference compound]
Clinical cure rate at TOC ([1]; CABP Study 1, CE population): 183/234 (78.2%) | Clinical cure rate at TOC ([1]; CABP Study 1, MITTE population): 233/300 (77.7%) | Clinical cure rate at TOC ([1]; CABP Study 2, CE population): 166/215 (77.2%) | Clinical cure rate at TOC ([1]; CABP Study 2, MITTE population): 206/273 (75.5%) | Clinical cure rate at TOC ([1]; Integrated Studies, CE population, 5 to 7 days of therapy): 349/449 (77.7%) | Clinical cure rate at TOC ([1]; Integrated Studies, MITTE population): 439/573 (76.6%) | Combined clinical cure rate ([1]; CE): 349/449 (77.7) % | Combined clinical cure rate ([1]; ME): 111/147 (75.5) % | Combined clinical cure rate ([1]; MITTE): 439/573 (76.6) % | Combined clinical cure rate ([1]; mMITTE): 126/168 (75.0) % | Clinical cure rate by infecting pathogen [2]: 9/12 (75.0%) | Clinical cure rate by infecting pathogen [3]: 17/20 (85.0%) | Clinical cure rate by infecting pathogen [4]: 10/12 (83.3%) | Clinical cure rate by infecting pathogen [5]: 15/27 (55.6%) | Clinical cure rate by infecting pathogen [6]: 41/59 (69.5%) | Clinical cure rate by infecting pathogen [7]: 1/4 (25.0%) | Clinical cure rate by infecting pathogen [8]: 14/25 (56.0%) | Clinical Success at the TOC Visit ([9]; Example 4, CE population): 166 (77.2) % | Favorable Microbiological Outcome at the TOC Visit ([9]; Example 4, ME population): 63 (82.9) % | Clinical Success at the TOC Visit ([9]; Example 4, MITTE population): 206 (75.5) % | Favorable Microbiological Outcome at TOC by Baseline Pathogen ([10]; Example 4, ME): 2/4 (50.0) | Clinical Cure Rate at the TOC Visit by Baseline Pathogen ([10]; Example 4, ME Population): 1/4 (25.0) | Favorable Microbiological Outcome at TOC by Baseline Pathogen ([11]; Example 4, ME): 11/12 (91.7) | Clinical Cure Rate at the TOC Visit by Baseline Pathogen ([11]; Example 4, ME Population): 11/12 (91.7) | Favorable Microbiological Outcome at TOC by Baseline Pathogen ([12]; Example 4, ME): 7/7 (100.0) | Clinical Cure Rate at the TOC Visit by Baseline Pathogen ([12]; Example 4, ME Population): 6/7 (85.7) | Favorable Microbiological Outcome at TOC by Baseline Pathogen ([13]; Example 4, ME): 7/8 (87.5) | Clinical Cure Rate at the TOC Visit by Baseline Pathogen ([13]; Example 4, ME Population): 7/8 (87.5) | Favorable Microbiological Outcome at TOC by Baseline Pathogen ([14]; Example 4, ME): 11/15 (73.3) | Clinical Cure Rate at the TOC Visit by Baseline Pathogen ([14]; Example 4, ME Population): 8/15 (53.3) | Favorable Microbiological Outcome at TOC by Baseline Pathogen ([15]; Example 4, ME): 25/32 (78.1) | Clinical Cure Rate at the TOC Visit by Baseline Pathogen ([15]; Example 4, ME Population): 23/32 (71.9) | Clinical Success at the TOC Visit ([16]; Example 5, CE population): 183 (78.2) % | Favorable Microbiological Outcome at the TOC Visit ([16]; Example 5, ME population): 56 (78.9) % | Clinical Success at the TOC Visit ([16]; Example 5, MITTE population): 233 (77.7) % | Favorable Microbiological Outcome at the TOC Visit ([16]; Example 5, mMITTE population): 63 (78.8) % | Favorable Microbiological Outcome at TOC by Baseline Pathogen ([17]; Example 5, ME): 0 | Clinical Cure Rate at the TOC Visit by Baseline Pathogen ([17]; Example 5, ME Population): 0 | Favorable Microbiological Outcome at TOC by Baseline Pathogen ([18]; Example 5, ME): 6/6 (100.0) | Clinical Cure Rate at the TOC Visit by Baseline Pathogen ([18]; Example 5, ME Population): 5/6 (83.3) | Favorable Microbiological Outcome at TOC by Baseline Pathogen ([19]; Example 5, ME): 6/8 (75.0) | Clinical Cure Rate at the TOC Visit by Baseline Pathogen ([19]; Example 5, ME Population): 6/8 (75.0) | Favorable Microbiological Outcome at TOC by Baseline Pathogen ([20]; Example 5, ME): 9/10 (90.0) | Clinical Cure Rate at the TOC Visit by Baseline Pathogen ([20]; Example 5, ME Population): 9/10 (90.0) | Favorable Microbiological Outcome at TOC by Baseline Pathogen ([21]; Example 5, ME): 8/12 (66.7) | Clinical Cure Rate at the TOC Visit by Baseline Pathogen ([21]; Example 5, ME Population): 7/12 (58.3) | Favorable Microbiological Outcome at TOC by Baseline Pathogen ([22]; Example 5, ME): 18/27 (66.7) | Clinical Cure Rate at the TOC Visit by Baseline Pathogen ([22]; Example 5, ME Population): 18/27 (66.7) | Adverse event: COPD [23]: 5 (1.6) % | Adverse event: Diarrhea [23]: 9 (2.9) % | Adverse event: Head ache [23]: 5 (1.6) % | Adverse event: Hypertension [23]: 8 (2.6) % | Adverse event: Pleural effusion [23]: 7 (2.3) % | Adverse event: Pneumonia [23]: 4 (1.3) % | study-drug-related TEAE: alanine aminotransferase increased [23]: 1.0% | study-drug-related TEAE: blood creatinine phosphokinase increased [23]: 0.7% | study-drug-related TEAE: heartache [23]: 1.0% | subjects with any study-drug-related TEAEs [23]: 13.7% | Adverse event: Constipation [24]: 5 (1.6) % | Adverse event: Hypertension [24]: 8 (2.6) % | TEAEs assessed as drug related by the Investigators [24]: 12.7% | study-drug-related TEAE: headache [24]: 0.0% | study-drug-related TEAE: hepatic enzyme increased [24]: 1.0% | study-drug-related TEAE: sinus bradychardia [24]: 1.0% | hemolytic anemia [25]: No evidence of hemolytic anemia | incidence of deaths [25]: 2.0% | hemolytic anemia [26]: No evidence of hemolytic anemia | percentage of deaths [26]: 2.6%
